# Test results as given in US7855297B2, “Amide derivatives and medicinal use thereof” (Mitsubishi Tanabe Pharma Corporation, priority 2000, dated 2010).
# Where a name gives a salt, the structure may show the parent alone.
row,melting point [°C],Structure (SMILES)
1,158 to 160,"COc1ccc2c(c1)C(C(=O)N(Cc1ccc(N(C)C)nc1)c1ccc(C(C)C)cc1)CCC2 (stereo not shown) (as salt: hydrochloride) (hydrate or solvate) [Example 55, N-[(6-dimethylaminopyridin-3-yl)methyl]-N-(4-isopropylphenyl)-7-methoxy-1,2,3,4-tetrahydronaphthalene-1-carboxamide hydrochloride ½ hydrate]"
2,108 to 110,"COc1ccc(CN(C(=O)C2CCCc3ccc(OC)cc32)c2ccc(C(C)C)cc2)nc1 (stereo not shown) (as salt: hydrochloride) (hydrate or solvate) [Example 56, N-(4-isopropylphenyl)-N-[(5-methoxypyridin-2-yl)methyl]-7-methoxy-1,2,3,4-tetrahydronaphthalene-1-carboxamide hydrochloride ½ hydrate]"
3,114 to 117,"COc1ccc2c(c1)C(C(=O)N(Cc1ccc(OC)nc1)c1ccc(C(C)C)cc1)CCC2 (stereo not shown) (as salt: hydrochloride) [Example 46, N-(4-isopropylphenyl)-N-[(6-methoxypyridin-3-yl)methyl]-7-methoxy-1,2,3,4-tetrahydronaphthalene-1-carboxamide monohydrochloride]"
4,165.6,"CC(C)c1ccc(N(Cc2ccc(N(C)C)cc2)C(=O)C2CCCc3ccc(F)cc32)cc1 (stereo not shown) (as salt: hydrochloride) [Example 127, N-[(4-dimethylaminophenyl)methyl]-7-fluoro-N-(4-isopropylphenyl)-1,2,3,4-tetrahydronaphthalene-1-carboxamide hydrochloride]"
5,214 to 217,"CC(C)c1ccc(N(Cc2ccc(N(C)C)cc2)C(=O)C2CCCc3ccc(O)cc32)cc1 (stereo not shown) [Example 20, N-[(4-dimethylaminophenyl)methyl]-7-hydroxy-N-(4-isopropylphenyl)-1,2,3,4-tetrahydronaphthalene-1-carboxamide]"
6,131 to 132,"COc1ccc2c(c1)C(C(=O)N(Cc1ccc(S(C)(=O)=O)cc1)c1ccc(C(C)C)cc1)CCC2 (stereo not shown) [Example 35, N-(4-isopropylphenyl)-N-[(4-methylsulfonylphenyl)methyl]-7-methoxy-1,2,3,4-tetrahydronaphthalene-1-carboxamide]"
7,143.2,"COc1ccc2c(c1)C(C(=O)N(Cc1ccc(CO)cc1)c1ccc(C(C)C)cc1)CCC2 (stereo not shown) [Example 95, N-{[4-(hydroxymethyl)phenyl]methyl}-N-(4-isopropylphenyl)-7-methoxy-1,2,3,4-tetrahydronaphthalene-1-carboxamide]"
8,115 to 117,"COc1ccc2c(c1)C(C(=O)N(Cc1ccc(N)cc1)c1ccc(C(C)C)cc1)CCC2 (stereo not shown) [Example 167, N-[(4-aminophenyl)methyl]-N-(4-isopropylphenyl)-7-methoxy-1,2,3,4-tetrahydronaphthalene-1-carboxamide]"

# Further lines, the compound ahead of its results:
row,Structure (SMILES),melting point [°C]
1,"COc1ccc(N(Cc2ccc(N(C)C)cc2)C(=O)C2CCCc3ccc(F)cc32)cc1 (stereo not shown) (as salt: hydrochloride) (hydrate or solvate) [Example 128, N-[(4-dimethylaminophenyl)methyl]-7-fluoro-N-(4-methoxyphenyl)-1,2,3,4-tetrahydronaphthalene-1-carboxamide hydrochloride ½ hydrate]",125.4
2,"COc1ccc2c(c1)C(C(=O)N(Cc1ccc(N(C)C)cc1)c1ccc(Br)cc1)CCC2 (stereo not shown) (as salt: hydrochloride) [Example 200, N-(4-bromophenyl)-N-[(4-dimethylaminophenyl)methyl]-7-methoxy-1,2,3,4-tetrahydronaphthalene-1-carboxamide hydrochloride]",104 to 113
3,"CC(C)c1ccc(N(Cc2ccc(N(C)C)cc2)C(=O)C2CCCc3c(OCCN(C)C)cccc32)cc1 (stereo not shown) (as salt: oxalate) (hydrate or solvate) [Example 113, 5-[2-(dimethylamino)ethoxy]-N-[(4-dimethylaminophenyl)methyl]-N-(4-isopropylphenyl)-1,2,3,4-tetrahydronaphthalene-1-carboxamide oxalate ¼ hydrate]",155.7
4,"CCn1cc(CN(C(=O)C2CCCc3c(OCCCN(C)C)cccc32)c2ccc(C(C)C)cc2)cn1 (stereo not shown) (as salt: oxalate) [Example 267, 5-[3-(dimethylamino)propoxy]-N-[(1-ethylpyrazol-4-yl)methyl]-N-(4-isopropylphenyl)-1,2,3,4-tetrahydronaphthalene-1-carboxamide 3/2 oxalate]",142.6
5,"CC(C)c1ccc(N(Cc2ccc(N(C)C)cc2)C(=O)C2CCCc3cc(OCCN(C)C)ccc32)cc1 (stereo not shown) (hydrate or solvate) [Example 106, 6-[2-(dimethylamino)ethoxy]-N-[(4-dimethylaminophenyl)methyl]-N-(4-isopropylphenyl)-1,2,3,4-tetrahydronaphthalene-1-carboxamide ⅕ hydrate]",132.6
6,"CCc1ccc(N(Cc2ccc(N(C)C)cc2)C(=O)C2CCCc3ccccc32)cc1 (stereo not shown) [Example 1, N-[(4-dimethylaminophenyl)methyl]-N-(4-ethylphenyl)-1,2,3,4-tetrahydronaphthalene-1-carboxamide]",109 to 110
7,"CC(C)COc1ccc(Br)cc1N(Cc1ccc(N(C)C)cc1)C(=O)C1CCCc2ccccc21 (stereo not shown) [Example 5, N-(5-bromo-2-isobutoxyphenyl)-N-[(4-dimethylaminophenyl)methyl]-1,2,3,4-tetrahydronaphthalene-1-carboxamide]",176 to 178
8,"CC(C)c1ccc(N(Cc2ccc(N(C)C)cc2)C(=O)C2CCCc3c(O)cccc32)cc1 (stereo not shown) [Example 17, N-[(4-dimethylaminophenyl)methyl]-5-hydroxy-N-(4-isopropylphenyl)-1,2,3,4-tetrahydronaphthalene-1-carboxamide]",200 to 202
9,"CC(C)c1ccc(N(Cc2ccc(N(C)C)cc2)C(=O)C2CCCc3cc(O)ccc32)cc1 (stereo not shown) [Example 37, N-[(4-dimethylaminophenyl)methyl]-6-hydroxy-N-(4-isopropylphenyl)-1,2,3,4-tetrahydronaphthalene-1-carboxamide]",169 to 171
10,"CC(C)c1ccc(N(Cc2ccc(N(C)C)cc2)C(=S)C2CCCc3ccccc32)cc1 (stereo not shown) [Example 54, N-[(4-dimethylaminophenyl)methyl]-N-(4-isopropylphenyl)-1,2,3,4-tetrahydronaphthalene-1-carbothioamide]",123 to 125
11,"COc1ccc(CN(C(=O)C2CCCc3c(O)cccc32)c2ccc(C(C)C)nc2)c(OC)n1 (stereo not shown) [Example 133, N-[(2,6-dimethoxypyridin-3-yl)methyl]-5-hydroxy-N-(6-isopropylpyridin-3-yl)-1,2,3,4-tetrahydronaphthalene-1-carboxamide]",164
12,"CC(C)c1ccc(N(Cc2cnn(CCN(C)C)c2)C(=O)C2CCCc3c(O)cccc32)cc1 (stereo not shown) [Example 355, N-({1-[2-(dimethylamino)ethyl]pyrazol-4-yl}methyl)-5-hydroxy-N-(4-isopropylphenyl)-1,2,3,4-tetrahydronaphthalene-1-carboxamide]",92
13,"CC(C)c1ccc(N(Cc2cnn(CCO)c2)C(=O)C2CCCc3c(O)cccc32)cc1 (stereo not shown) [Example 362, 5-hydroxy-N-{[1-(2-hydroxyethyl)pyrazol-4-yl]methyl}-N-(4-isopropylphenyl)-1,2,3,4-tetrahydronaphthalene-1-carboxamide]",110 to 114
14,"CC(C)c1ccc(N(Cc2cnn(CC(F)(F)F)c2)C(=O)C2CCCc3c(O)cccc32)cn1 (stereo not shown) [Example 435, 5-hydroxy-N-(6-isopropylpyridin-3-yl)-N-{[1-(2,2,2-trifluoroethyl)pyrazol-4-yl]methyl}-1,2,3,4-tetrahydronaphthalene-1-carboxamide]",127.7
